From patent US5663207A, “Gem-dichlorocyclopropanes as antitumor agents” (priority 1995, dated 1997)
“Also recorded” adds a separate entry of the source.

Target: T1, estrogen receptor (Rattus norvegicus, UniProt P06211)
T1 construct: ovariectomized rat uterine cytosolic estrogen receptor preparation; from tissue; host or cells: uterine cytosol of ovariectomized Sprague-Dawley rats (immature rats from Sasco are named as uterus source, mature ovariectomized rats)
T1 sequence (P06211 1-600): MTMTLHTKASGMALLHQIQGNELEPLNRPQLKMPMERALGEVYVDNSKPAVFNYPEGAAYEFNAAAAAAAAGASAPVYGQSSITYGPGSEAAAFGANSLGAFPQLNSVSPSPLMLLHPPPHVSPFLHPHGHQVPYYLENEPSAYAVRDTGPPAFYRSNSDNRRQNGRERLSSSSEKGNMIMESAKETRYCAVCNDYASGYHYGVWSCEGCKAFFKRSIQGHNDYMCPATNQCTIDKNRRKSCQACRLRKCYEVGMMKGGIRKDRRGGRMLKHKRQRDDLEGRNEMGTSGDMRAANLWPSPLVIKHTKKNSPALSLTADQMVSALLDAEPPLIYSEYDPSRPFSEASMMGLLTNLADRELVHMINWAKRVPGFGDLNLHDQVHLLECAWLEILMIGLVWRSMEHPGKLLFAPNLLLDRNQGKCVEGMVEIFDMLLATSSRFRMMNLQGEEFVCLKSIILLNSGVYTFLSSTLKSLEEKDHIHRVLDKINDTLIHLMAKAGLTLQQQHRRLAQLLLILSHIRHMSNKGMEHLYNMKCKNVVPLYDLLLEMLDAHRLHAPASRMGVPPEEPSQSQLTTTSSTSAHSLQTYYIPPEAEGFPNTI
Assay: Receptor binding assay: displacement of [3H]-estradiol from rat uterine cytosol
Set-up: species or system rat (Sprague-Dawley)
Conditions: for RBA (relative binding affinity): relative to estradiol = 100%, average of duplicate determinations minus nonspecific binding
From the text: The biological evaluation of the test compounds consisted of the in vitro rat cytosolic estradiol receptor binding assay, the in vivo immature mouse uterotrophic (estrogenic) and antiuterotrophic (antiestrogenic) assays, and the in vitro suppression of the proliferation of the ER positive MCF-7 human breast cancer cell line. Estradiol (pure agonist), TAM (agonist in mice and antagonist in MCF-7), MER 25 (pure antagonist) and Analog II (antagonist in mice) were used in the assay as standards.
Vital-free immature female Swiss-Webster mice were obtained at 17-19 days of age from Sasco weighing 8-10 g, and were used in the uterotrophic and antiuterotrophic assays. Immature female Sprague-Dawley rats, obtained at 17-19 days of age from Sasco, weighing 28-33 g, were used as sources of uteri for the estradiol receptor binding assay. Animals were housed in wire topped polycarbonate cages at six animals per cage, with the environment controlled at 25° C. and a 12 h light/dark cycle. The animals received a diet of Wayne Lab Blox rodent chow and tap water ad libitum.
The RBAs of the test compounds were determined by the displacement of [^3 H]-estradiol in vitro, as described previously (DAY, B. W., […], R. A., JAIN, P., PENTO, J. T., MOUSISSIAN, G. K. AND MEYER, K. L. (1991), "Synthesis and biological evaluation of a series of 1,1-dichloro-2,2,3-triarylcyclopropanes as pure antiestrogens", Journal of Medicinal Chemistry, 34, 842; KORENMAN, S. G. (1969), "Comparative binding affinity of estrogens and its relation to estrogenic potency", Steroid, 13, 163). Mature female Sprague-Dawley rats were ovariectomized at least two weeks prior to the receptor binding experiment. Each test compound was assayed at three concentrations in duplicate over a range of 10^-3 -10^-5 M and 10^-6 -10^-8 M for the estradiol standard. The non-specific binding was determined by a parallel incubation of each compound with the addition of diethylstilbestrol to give a final concentration of 2×10^-5 M DES which was sufficient to saturate all the estrogen receptors present in the cytosolic fraction. Specific displacement for each compound was determined by subtraction of nonspecific displacement from total displacement. The [^3 H]-estradioldisplacement curve for each test compound was determined by linear repression analysis and plotted graphically. The relative binding affinity for each compound was calculated (BLISS, C.I. (1967), "The statistics in biology", McGraw Hill, Inc: New York).
^a Determined by competitive radiometric binding assay with rat
uterine cytosol as a source of receptor, [^3 H]estradiol as tracer,
and dextrancoated charcoal as absorbant for free ligand.
^c Binding affinities are expressed relative to that of estradiol =
100% (RBA = relative binding affinity) and are the average of duplicate
determinations minus nonspecific binding.
The relative binding affinities (RBAs), as determined by the competitive radiometric binding assay and measured by [^3 H]-estradiol displacement from the ovariectomized rat uterine cytosolic estrogen receptor preparation, after subtracting non-specific receptor binding, were calculated for all of the synthesized target compounds, TAM, MER 25, Analog II, and estradiol. The displacement curves were plotted as percent receptor-bound [^3 H]-estrodiol versus concentration of test compounds (not shown) and the receptor binding affinity of each compound is presented in Table II.

| Compound | RBA (relative binding affinity) [%] | RBA ranking (in words) (among the compounds tested) |
| --- | --- | --- |
| CC(=O)Oc1ccc([C@H]2[C@@H](c3ccccc3)C2(Cl)Cl)cc1 (relative stereo) [Compound 10, 1,1-Dichloro-cis-2-(p-acetoxyphenyl)-3-phenylcyclopropane] | 0.07 |  |
| Oc1ccc(C2(c3ccc(O)cc3)C(Cl)(Cl)C23CCCCC3)cc1 [Compound 30, 1,1-Dichloro-2,2-bis-(p-hydroxyphenyl)-spiro[2.5]octane] | 0.62 | comparable to tamoxifen; also recorded: the highest |
